Results reported in article PMC4046888 (Cancer cell, 2011).
Like-named read-outs stand apart in the source and are kept apart here.

Experiments:
RS4;11 cells (MLL-AF4) = assay: Cell proliferation, viable cell count; format: cell-based; settings: Homo sapiens, RS4-11, 336 h, read-out: IC50 inhibition of cell proliferation
[1] = tested on: MV4-11 cells injected into tail vein of NSG mice; assay: Disseminated MV4-11 leukemia model, survival; format: in vivo, mouse
[2] = tested on: H3K79me2 in MLL-AF9 transformed hematopoietic progenitors; assay: Immunoblot for H3K79me2 in transformed progenitors; format: cell-based, murine; settings: 10 days
[3] = tested on: 697 cells (nonrearranged); assay: Cell proliferation, viable cell count; format: cell-based; settings: Homo sapiens, 336 h, read-out: IC50 inhibition of cell proliferation
[4] = tested on: HOXA9 and MEIS1 transcript levels in MOLM-13 cells; assay: Quantitative real-time PCR, concentration response; settings: Homo sapiens, MOLM-13, 144 h
[5] = tested on: H3K79me2 levels in Jurkat cells; assay: Immunoblot of extracted histones for H3K79me2; format: cell-based, human; settings: 4 days, increasing concentrations
MV4-11 cells = assay: Flow cytometry for DNA content and Annexin V; format: cell-based, human; settings: 3 μM
SETD7 = SETD7 (Homo sapiens, UniProt Q8WTS6); assay: Histone methyltransferase panel IC50, balanced conditions
[6] = tested on: HOXA9 and MEIS1 transcript levels in MV4-11 cells; assay: Quantitative real-time PCR, concentration response; settings: Homo sapiens, MV4-11, 144 h
[7] = tested on: Kasumi-1 cells (nonrearranged); assay: Cell proliferation, viable cell count; format: cell-based; settings: Homo sapiens, Kasumi 1, 336 h, read-out: IC50 inhibition of cell proliferation
[8] = Plasma concentration by LC-MS/MS, mini-osmotic pump infusion; format: in vivo, mouse; settings: for average steady-state plasma concentration: pilot PK
[9] = tested on: U937 cells (nonrearranged); assay: Cell proliferation, viable cell count; format: cell-based; settings: Homo sapiens, U-937, 336 h, read-out: IC50 inhibition of cell proliferation
[10] = tested on: H3K79me2 in Hoxa9-Meis1a transformed hematopoietic progenitors; assay: Immunoblot for H3K79me2 in transformed progenitors; format: cell-based, murine; settings: 10 days
CARM1 = CARM1 (Homo sapiens, UniProt Q86X55); assay: Histone methyltransferase panel IC50, balanced conditions
MV4-11 cells (MLL-AF4) = assay: Cell proliferation, viable cell count; format: cell-based, human
[11] = target: EZH2 (in the context of the PRC2 multiprotein complex) (Homo sapiens, UniProt Q15910); assay: Histone methyltransferase panel IC50, balanced conditions
PRMT5 = PRMT5 (Homo sapiens, UniProt O14744); assay: as above
Solubility = format: physicochemical
[12] = tested on: hematopoietic progenitors transformed by coexpression of HoxA9 and Meis1a; assay: Proliferation of transformed hematopoietic progenitors; format: cell-based, murine; settings: concentrations of up to 30 μM
KOPN-8 cells (MLL-ENL) = assay: Cell proliferation, viable cell count; format: cell-based; settings: Homo sapiens, KOPN-8, 336 h, read-out: IC50 inhibition of cell proliferation
[13] = tested on: HOXA9, MEIS1 and TBP mRNA in MV4-11 and MOLM-13 cells; assay: Quantitative real-time PCR, time course at 3 μM; format: cell-based, human
[14] = tested on: H3K79me2 levels in MOLM-13 cells; assay: Immunoblot of extracted histones for H3K79me2; format: cell-based, human; settings: 4 days, increasing concentrations
WHSC1 = WHSC1 (Homo sapiens, UniProt O96028); assay: Histone methyltransferase panel IC50, balanced conditions
PRMT8 = PRMT8 (Homo sapiens, UniProt Q9NR22); assay: as above
[15] = tested on: histone methyl marks in MV4-11 cells; assay: Immunoblot with panel of methyl-lysine and methyl-arginine specific antibodies; format: cell-based, human; settings: 10 μM
[16] = target: EZH1 (in the context of the PRC2 multiprotein complex) (Homo sapiens, UniProt Q92800); assay: Histone methyltransferase panel IC50, balanced conditions
MOLM-13 cells (MLL-AF9) = assay: Cell proliferation, viable cell count; format: cell-based, human
SEM cells (MLL-AF4) = assay: Cell proliferation, viable cell count; format: cell-based; settings: Homo sapiens, 336 h, read-out: IC50 inhibition of cell proliferation
[17] = tested on: CD14 expression in MOLM-13 cells; assay: Flow cytometry for cell surface CD14; format: cell-based, human; settings: 3 μM, 12 days
[18] = tested on: Jurkat cells (nonrearranged); assay: Cell proliferation, viable cell count; format: cell-based, human
normal C57BL/6 mice = assay: Hematologic analysis and tolerability in normal mice; format: in vivo, mouse; settings: pump 150 mg/ml, 14 days
PRMT1 = PRMT1 (Homo sapiens, UniProt Q99873); assay: Histone methyltransferase panel IC50, balanced conditions
EHMT2 = EHMT2 (Homo sapiens, UniProt Q96KQ7); assay: as above
[19] = tested on: HL-60 cells (nonrearranged); assay: Cell proliferation, viable cell count; format: cell-based; settings: Homo sapiens, HL-60, 336 h, read-out: IC50 inhibition of cell proliferation
[20] = tested on: REH cells (nonrearranged); assay: Cell proliferation, viable cell count; format: cell-based; settings: Homo sapiens, 336 h, read-out: IC50 inhibition of cell proliferation
[21] = tested on: primary murine hematopoietic progenitors transformed by MLL-AF9; assay: Proliferation of transformed hematopoietic progenitors; format: cell-based; settings: 10 days treatment, MTT at day 12
[22] = tested on: H3K79me2 levels in MV4-11 cells; assay: Immunoblot of extracted histones for H3K79me2; format: cell-based, human
[23] = read-out: IC50 decrease of HOXA9 transcript
[24] = read-out: IC50 decrease of MEIS1 transcript

PRMT5, sequence (O14744 whole entry): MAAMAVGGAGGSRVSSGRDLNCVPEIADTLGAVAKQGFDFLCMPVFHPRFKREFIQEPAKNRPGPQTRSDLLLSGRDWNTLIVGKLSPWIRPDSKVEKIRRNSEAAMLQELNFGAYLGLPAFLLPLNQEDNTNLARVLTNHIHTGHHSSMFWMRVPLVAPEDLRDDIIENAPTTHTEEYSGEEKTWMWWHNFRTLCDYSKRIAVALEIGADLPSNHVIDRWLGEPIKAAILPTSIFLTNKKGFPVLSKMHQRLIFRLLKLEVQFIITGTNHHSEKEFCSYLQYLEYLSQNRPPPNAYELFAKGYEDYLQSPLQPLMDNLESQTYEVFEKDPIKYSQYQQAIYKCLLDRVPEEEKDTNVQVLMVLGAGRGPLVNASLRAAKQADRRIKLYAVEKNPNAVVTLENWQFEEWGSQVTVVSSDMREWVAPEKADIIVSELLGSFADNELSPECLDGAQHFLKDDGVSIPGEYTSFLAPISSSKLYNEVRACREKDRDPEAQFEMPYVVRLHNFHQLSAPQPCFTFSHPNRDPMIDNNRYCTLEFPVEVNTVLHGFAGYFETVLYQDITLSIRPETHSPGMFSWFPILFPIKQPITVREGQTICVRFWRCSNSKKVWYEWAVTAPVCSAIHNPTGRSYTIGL
PRMT5, sequence (Q9BQA1 whole entry partner): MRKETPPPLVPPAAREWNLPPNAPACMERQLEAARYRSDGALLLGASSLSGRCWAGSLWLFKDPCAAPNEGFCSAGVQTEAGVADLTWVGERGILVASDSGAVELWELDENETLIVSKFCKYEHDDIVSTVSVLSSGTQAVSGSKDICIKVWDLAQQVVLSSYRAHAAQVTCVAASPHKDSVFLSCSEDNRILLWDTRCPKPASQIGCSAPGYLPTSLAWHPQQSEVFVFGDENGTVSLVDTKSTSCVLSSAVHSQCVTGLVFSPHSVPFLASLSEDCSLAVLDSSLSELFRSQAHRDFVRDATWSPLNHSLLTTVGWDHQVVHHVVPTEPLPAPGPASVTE
PRMT1, sequence (Q99873 whole entry): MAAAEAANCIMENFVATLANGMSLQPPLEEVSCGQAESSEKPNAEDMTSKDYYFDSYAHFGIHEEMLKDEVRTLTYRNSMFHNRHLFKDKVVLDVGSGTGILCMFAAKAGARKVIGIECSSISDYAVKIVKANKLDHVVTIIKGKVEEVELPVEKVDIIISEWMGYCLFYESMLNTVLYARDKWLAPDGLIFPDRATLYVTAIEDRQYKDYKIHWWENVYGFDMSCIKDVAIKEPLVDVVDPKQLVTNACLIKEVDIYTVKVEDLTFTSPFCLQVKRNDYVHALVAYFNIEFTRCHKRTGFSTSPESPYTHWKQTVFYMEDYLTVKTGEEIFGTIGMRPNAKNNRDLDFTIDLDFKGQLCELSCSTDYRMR
EZH2 (in the context of the PRC2 multiprotein complex), sequence (Q15910 whole entry): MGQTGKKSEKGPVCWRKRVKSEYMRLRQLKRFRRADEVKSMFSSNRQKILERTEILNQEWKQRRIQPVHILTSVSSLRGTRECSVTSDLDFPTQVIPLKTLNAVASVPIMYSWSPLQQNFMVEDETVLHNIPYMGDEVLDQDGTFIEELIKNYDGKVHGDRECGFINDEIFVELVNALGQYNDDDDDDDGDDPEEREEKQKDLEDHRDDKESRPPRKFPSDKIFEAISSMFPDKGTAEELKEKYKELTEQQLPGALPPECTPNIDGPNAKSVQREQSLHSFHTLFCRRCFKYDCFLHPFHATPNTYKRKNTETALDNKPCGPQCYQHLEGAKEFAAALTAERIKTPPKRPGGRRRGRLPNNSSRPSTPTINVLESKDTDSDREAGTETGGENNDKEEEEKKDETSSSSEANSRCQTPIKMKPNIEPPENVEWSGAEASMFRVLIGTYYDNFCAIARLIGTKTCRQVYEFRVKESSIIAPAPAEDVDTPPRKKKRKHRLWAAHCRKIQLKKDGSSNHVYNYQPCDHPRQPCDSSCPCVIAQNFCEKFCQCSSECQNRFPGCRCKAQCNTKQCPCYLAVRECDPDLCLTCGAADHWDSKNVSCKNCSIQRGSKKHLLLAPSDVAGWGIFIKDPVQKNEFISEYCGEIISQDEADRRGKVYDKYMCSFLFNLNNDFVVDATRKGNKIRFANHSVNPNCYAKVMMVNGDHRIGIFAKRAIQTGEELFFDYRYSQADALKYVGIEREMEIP
EZH2 (in the context of the PRC2 multiprotein complex), sequence (O75530 whole entry partner): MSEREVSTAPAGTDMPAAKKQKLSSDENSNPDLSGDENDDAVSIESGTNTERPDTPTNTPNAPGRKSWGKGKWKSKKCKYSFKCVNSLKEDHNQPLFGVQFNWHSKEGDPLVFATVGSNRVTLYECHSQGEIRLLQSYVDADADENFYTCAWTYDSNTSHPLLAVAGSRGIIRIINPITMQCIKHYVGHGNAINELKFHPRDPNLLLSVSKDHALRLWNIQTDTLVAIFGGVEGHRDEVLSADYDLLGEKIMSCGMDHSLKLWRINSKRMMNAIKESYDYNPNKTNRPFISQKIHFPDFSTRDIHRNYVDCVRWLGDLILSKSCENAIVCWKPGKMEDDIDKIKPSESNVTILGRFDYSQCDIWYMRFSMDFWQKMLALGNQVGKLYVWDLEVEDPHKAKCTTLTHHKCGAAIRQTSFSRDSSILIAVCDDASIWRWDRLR
EZH2 (in the context of the PRC2 multiprotein complex), sequence (Q15022 whole entry partner): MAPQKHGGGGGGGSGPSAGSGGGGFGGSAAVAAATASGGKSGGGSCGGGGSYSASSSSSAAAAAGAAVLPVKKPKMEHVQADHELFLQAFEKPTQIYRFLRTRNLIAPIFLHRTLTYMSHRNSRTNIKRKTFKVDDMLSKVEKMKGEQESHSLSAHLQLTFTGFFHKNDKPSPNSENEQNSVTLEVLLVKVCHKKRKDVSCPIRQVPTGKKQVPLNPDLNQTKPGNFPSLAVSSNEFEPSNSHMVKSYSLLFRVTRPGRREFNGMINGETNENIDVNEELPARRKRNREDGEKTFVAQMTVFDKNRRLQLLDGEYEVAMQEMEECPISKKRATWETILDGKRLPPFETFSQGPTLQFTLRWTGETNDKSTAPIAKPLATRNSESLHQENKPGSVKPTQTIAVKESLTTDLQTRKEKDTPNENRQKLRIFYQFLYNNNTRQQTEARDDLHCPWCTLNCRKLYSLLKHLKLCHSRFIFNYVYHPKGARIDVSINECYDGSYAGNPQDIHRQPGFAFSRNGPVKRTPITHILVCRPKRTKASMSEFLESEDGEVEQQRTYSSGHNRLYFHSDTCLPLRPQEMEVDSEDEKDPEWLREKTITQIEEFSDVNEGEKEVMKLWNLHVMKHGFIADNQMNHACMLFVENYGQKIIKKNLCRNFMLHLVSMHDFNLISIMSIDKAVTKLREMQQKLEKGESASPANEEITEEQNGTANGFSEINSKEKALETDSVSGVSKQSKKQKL
EZH2 (in the context of the PRC2 multiprotein complex), sequence (Q09028 whole entry partner): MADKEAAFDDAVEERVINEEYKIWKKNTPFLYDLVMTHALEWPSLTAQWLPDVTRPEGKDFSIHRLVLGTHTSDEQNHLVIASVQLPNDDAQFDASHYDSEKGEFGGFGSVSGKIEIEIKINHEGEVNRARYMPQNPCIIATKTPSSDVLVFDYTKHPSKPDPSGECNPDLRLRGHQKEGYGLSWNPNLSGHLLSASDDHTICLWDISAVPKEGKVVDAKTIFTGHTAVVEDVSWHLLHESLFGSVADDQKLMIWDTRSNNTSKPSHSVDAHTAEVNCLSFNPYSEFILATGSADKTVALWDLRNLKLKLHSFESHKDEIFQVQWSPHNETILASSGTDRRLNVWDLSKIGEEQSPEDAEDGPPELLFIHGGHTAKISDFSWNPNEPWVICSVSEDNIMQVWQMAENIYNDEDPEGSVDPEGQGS
PRMT8, sequence (Q9NR22 whole entry): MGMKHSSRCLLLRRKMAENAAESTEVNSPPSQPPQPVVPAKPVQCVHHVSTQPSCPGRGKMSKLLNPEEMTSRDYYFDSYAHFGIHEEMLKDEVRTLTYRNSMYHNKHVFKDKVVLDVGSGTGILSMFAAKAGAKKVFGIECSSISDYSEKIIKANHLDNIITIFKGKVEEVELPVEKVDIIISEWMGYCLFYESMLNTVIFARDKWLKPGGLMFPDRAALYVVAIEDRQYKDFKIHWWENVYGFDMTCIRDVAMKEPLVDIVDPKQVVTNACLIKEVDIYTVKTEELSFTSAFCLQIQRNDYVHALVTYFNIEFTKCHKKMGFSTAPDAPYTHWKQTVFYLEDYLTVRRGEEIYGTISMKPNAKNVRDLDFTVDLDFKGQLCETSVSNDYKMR
CARM1, sequence (Q86X55 whole entry): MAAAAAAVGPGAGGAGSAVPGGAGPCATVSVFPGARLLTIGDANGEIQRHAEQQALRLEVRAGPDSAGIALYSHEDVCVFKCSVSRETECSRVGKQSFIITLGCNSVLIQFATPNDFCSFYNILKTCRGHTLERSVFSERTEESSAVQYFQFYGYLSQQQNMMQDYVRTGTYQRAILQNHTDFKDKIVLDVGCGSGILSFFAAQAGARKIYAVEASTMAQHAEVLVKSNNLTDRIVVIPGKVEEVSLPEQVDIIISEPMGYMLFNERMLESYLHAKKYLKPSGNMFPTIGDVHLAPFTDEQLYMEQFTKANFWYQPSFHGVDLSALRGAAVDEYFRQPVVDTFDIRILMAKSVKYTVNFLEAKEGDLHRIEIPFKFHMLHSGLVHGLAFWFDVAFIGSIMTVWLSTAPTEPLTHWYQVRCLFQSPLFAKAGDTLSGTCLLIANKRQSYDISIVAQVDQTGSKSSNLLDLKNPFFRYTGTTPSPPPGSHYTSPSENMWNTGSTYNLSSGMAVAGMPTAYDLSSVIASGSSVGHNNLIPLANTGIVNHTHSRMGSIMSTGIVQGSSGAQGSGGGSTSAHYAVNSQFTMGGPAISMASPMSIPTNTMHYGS

For CC(C)N(CCCNC(=O)Nc1ccc(C(C)(C)C)cc1)C[C@H]1O[C@@H](n2ccc3c(N)ncnc32)[C@H](O)[C@@H]1O [EPZ004777], the IC50 (RS4;11 cells (MLL-AF4)) was 6.47 µM, the “pump implant site reaction” value ([1]; 100 and 150 mg/ml groups) was “Local irritation at the pump implant site” and the body weight ([1]; NSG mice, 14 days) was “no significant weight loss”. The tolerability ([1]; NSG mice, 14 days) was “well tolerated”, the median survival ([1]; pumps 50, 100 or 150 mg/ml, 14 days exposure, log-rank test) was “dose-dependent and statistically significant increase” and the H3K79 methylation [2] was “inhibited H3K79 methylation”. The IC50 [3] was 36.6 µM, the IC50 [4, 23] was roughly 700 nM and the IC50 [4, 24] was roughly 700 nM. For the same molecule, the “global H3K79me2 levels” value [5] was “concentration-dependent reduction”, the G0/G1 phase cells (MV4-11 cells; 4 days) was “modest increase” and the S-phase cells (MV4-11 cells; 4 days) was “decrease”. The “sub-G1 and Annexin-positive cells” value (MV4-11 cells; days 4 to 10) was “increase”, the IC50 (SETD7) was greater than 50 µM and the IC50 [6, 23] was roughly 700 nM. For the same molecule, the IC50 [6, 24] was roughly 700 nM, the IC50 [7] was 33 µM and the pharmacokinetic properties ([8]; precluded conventional dosing) was “poor”. For the same molecule, the “average circulating plasma level” value ([8]; pump 50 mg/ml, s.c. MV4-11 xenograft mice) was 0.55 ± 0.12 µM, the “average steady-state plasma concentration” value ([8]; pump 100 mg/ml) was 0.64 ± 0.48 µM and the “average steady-state plasma concentration” value ([8]; pump 150 mg/ml) was 0.84 ± 0.45 µM. The IC50 [9] was greater than 50 µM, the H3K79 methylation [10] was “inhibited H3K79 methylation” and the IC50 (CARM1) was greater than 50 µM. For the same molecule, the “number of viable cells” value (MV4-11 cells (MLL-AF4); 3 μM, extended treatment) was “dramatically reduced”, the IC50 (MV4-11 cells (MLL-AF4); Homo sapiens, MV4-11, 336 h, read-out: IC50 inhibition of cell proliferation) was 170 nM and the IC50 [11] was greater than 50 µM. For the same molecule, the IC50 (PRMT5; IC50, ± 95% confidence interval) was 521 ± 137 nM, the IC50 (PRMT5; biochemical IC50, only HMT other than DOT1L below this bound) was less than 50000 nM and the solubility (Solubility) was no more than 50 µM. For the same molecule, the solubility (Solubility; 15% ethanol, 50% PEG300, 35% water) was 150 mg/mL, the “survival of transformed progenitors” value [12] was “unaffected” and the IC50 (KOPN-8 cells (MLL-ENL)) was 620 nM. For the same molecule, the “time to maximal reduction of HOXA9 and MEIS1 transcripts” value [13] was 6 to 8 days, the “time to significant decrease of HOXA9 and MEIS1 transcripts” value [13] was no more than 48 h and the “transcript levels of housekeeping gene TBP” value ([13]; 8 days) was “unaffected”. For the same molecule, the “global H3K79me2 levels” value [14] was “concentration-dependent reduction”, the IC50 (WHSC1) was greater than 50 µM and the IC50 (PRMT8) was greater than 50 µM. The H3K79me1 levels [15] was “reduced”, the “H4R3me2 (residue targeted by PRMT5)” value [15] was “no changes” and the “methylation state of H3K9 and H3K4 (PRDM and SMYD family targets)” value [15] was “did not change”. For the same molecule, the IC50 [16] was greater than 50 µM, the “number of viable cells” value (MOLM-13 cells (MLL-AF9); 3 μM, extended treatment) was “dramatically reduced” and the IC50 (MOLM-13 cells (MLL-AF9); Homo sapiens, 336 h, read-out: IC50 inhibition of cell proliferation) was 720 nM. For the same molecule, the IC50 (SEM cells (MLL-AF4)) was 1720 nM, the “cell surface expression of CD14” value [17] was “induced” and the growth of cells ([18]; 3 μM, extended treatment) was “unaffected”. For the same molecule, the IC50 ([18]; Homo sapiens, Jurkat, 336 h, read-out: IC50 inhibition of cell proliferation) was greater than 50 µM, the bone marrow cellularity (normal C57BL/6 mice) was “preserved” and the “colony forming potential of bone marrow progenitors” value (normal C57BL/6 mice) was “did not find any significant differences”. The “granulocyte/monocyte progenitors (GMP)” value (normal C57BL/6 mice) was “not significantly affected”, the overt toxicity (normal C57BL/6 mice) was “no overt toxicity” and the tolerability (normal C57BL/6 mice) was “well tolerated”. The “populations highly enriched for hematopoietic stem cells” value (normal C57BL/6 mice; versus control mice) was “did not reveal any difference”, the “committed progenitors (Lin-Sca-1-c-Kit+)” value (normal C57BL/6 mice; most apparent in CMP and MEP) was “statistically significant decrease” and the “total white blood cell count” value (normal C57BL/6 mice; neutrophils, monocytes, lymphocytes increased) was “statistically significant increase”. The IC50 (PRMT1) was greater than 50 µM, the IC50 (EHMT2) was greater than 50 µM and the IC50 [19] was greater than 50 µM. For the same molecule, the IC50 [20] was 13.9 µM, the “concentration strongly inhibiting proliferation” value [21] was no less than 3 µM and the “time to full depletion of H3K79me2” value ([22]; 3 μM) was 4 to 5 days. The “global H3K79me2 levels” value ([22]; 4 days, increasing concentrations) was “concentration-dependent reduction”.
